According to US9938258B2 (Karyopharm Therapeutics Inc., priority 2012, dated 2018):

Key:
[1] = tested on: 3T3 cells; experiment: MTT cell proliferation assay, 3T3; type: cell-based, mouse; details: Mus musculus, NIH3T3, 3T3 cells, approximately 64-72 hours incubation; read-out: MTT Assay IC50, 3T3
In short: (§1)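 Seeding 5,000-10,000 cells/well, overnight attachment; 8 concs, 1 nM–30 μM. MTT ~4 h, formazan solubilized, OD 490 nm. % inhibition vs negative control, mostly duplicate, mean±SE.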

[2] = tested on: MS751 cells; experiment: MTT cell proliferation assay, MS751; type: cell-based, human; details: Homo sapiens, MS751, MS751 cells, approximately 64-72 hours incubation; read-out: MTT Assay IC50, MS751
In short: as §1

[3] = tested on: Z138 cells; experiment: MTT cell proliferation assay, Z138; type: cell-based; details: Homo sapiens, Z-138, Z138 cells, approximately 64-72 hours incubation; read-out: MTT Assay IC50, Z138
In short: as §1

CC1(F)CN(C(=O)c2ccc(-c3cc(Cl)c4c(c3)CC(/C=C/C(=O)NCc3ccc(N)nc3)O4)cc2)C1 (stereo not drawn) [Compound 366, (E)-N-((6-aminopyridin-3-yl)methyl)-3-(7-chloro-5-(4-(3-fluoro-3-methylazetidine-1-carbonyl)phenyl)-2,3-dihydrobenzofuran-2-yl)acrylamide]
IC50 [1]: 100 to 5000 nM | IC50 [2]: > 30000 nM | IC50 [3]: > 30000 nM

CC1(C)COCCN1C(=O)c1ccc(-c2cc(Cl)c3c(c2)CC(/C=C/C(=O)NCc2ccc(N)nc2)O3)cc1 (stereo not drawn) [Compound 367, (E)-N-((6-aminopyridin-3-yl)methyl)-3-(7-chloro-5-(4-(3,3-dimethylmorpholine-4-carbonyl)phenyl)-2,3-dihydrobenzofuran-2-yl)acrylamide]
IC50 [1]: 100 to 5000 nM | IC50 [2]: < 100 nM | IC50 [3]: < 100 nM

CC1(C)COCCN1C(=O)c1ccc(-c2cc(Cl)c3c(c2)CC(/C=C/C(=O)NCc2ccc(N)nc2)O3)nc1 (stereo not drawn) [Compound 368, (E)-N-((6-aminopyridin-3-yl)methyl)-3-(7-chloro-5-(5-(3,3-dimethylmorpholine-4-carbonyl)pyridin-2-yl)-2,3-dihydrobenzofuran-2-yl)acrylamide]
IC50 [1]: 100 to 5000 nM | IC50 [2]: < 100 nM | IC50 [3]: < 100 nM

CC(=O)c1ccc(-c2cc(Cl)c3c(c2)CC(CNC(=O)CCc2cnc(N)c(Br)c2)O3)s1 (stereo not drawn) [Compound 371, N-((5-(5-acetylthiophen-2-yl)-7-chloro-2,3-dihydrobenzofuran-2-yl)methyl)-3-(6-amino-5-bromopyridin-3-yl)propanamide]
IC50 [1]: > 30000 nM | IC50 [2]: 5000 to 30000 nM | IC50 [3]: 5000 to 30000 nM

Nc1ccc(/C=C/C(=O)NCC2Cc3cc(-c4ccc(C(=O)N5CCOCC5)c(F)c4F)cc(Cl)c3O2)cn1 (stereo not drawn) [Compound 901, (E)-3-(6-aminopyridin-3-yl)-N-((7-chloro-5-(2,3-difluoro-4-(morpholine-4-carbonyl)phenyl)-2,3-dihydrobenzofuran-2-yl)methyl)acrylamide]
IC50 [1]: 100 to 5000 nM | IC50 [2]: < 100 nM | IC50 [3]: < 100 nM

Nc1ccc(/C=C/C(=O)NCC2Cc3cc(-c4c(F)cc(C(=O)N5CCOCC5)cc4F)cc(Cl)c3O2)cn1 (stereo not drawn) [Compound 902, (E)-3-(6-aminopyridin-3-yl)-N-((7-chloro-5-(2,6-difluoro-4-(morpholine-4-carbonyl)phenyl)-2,3-dihydrobenzofuran-2-yl)methyl)acrylamide]
IC50 [1]: 100 to 5000 nM | IC50 [2]: < 100 nM | IC50 [3]: < 100 nM

Nc1ccc(/C=C/C(=O)NCC2Cc3cc(-c4ccc(C(=O)N5CCOCC5)c(F)c4)cc(Cl)c3O2)cn1 (stereo not drawn) [Compound 903, (E)-3-(6-aminopyridin-3-yl)-N-((7-chloro-5-(3-fluoro-4-(morpholine-4-carbonyl)phenyl)-2,3-dihydrobenzofuran-2-yl)methyl)acrylamide]
IC50 [1]: 100 to 5000 nM | IC50 [2]: < 100 nM | IC50 [3]: < 100 nM

Nc1ccc(/C=C/C(=O)NCC2Cc3cc(-c4ccc(C(=O)NNc5cnccn5)cc4)cc(Cl)c3O2)cn1 (stereo not drawn) [Compound 904, (E)-3-(6-aminopyridin-3-yl)-N-((7-chloro-5-(4-(2-(pyrazin-2-yl) hydrazine-1-carbonyl)phenyl)-2,3-dihydrobenzofuran-2-yl)methyl)acrylamide]
IC50 [1]: 100 to 5000 nM | IC50 [2]: < 100 nM | IC50 [3]: < 100 nM

Nc1ccc(/C=C/C(=O)NCC2Cc3cc(-c4ccc(C(=O)CN5CCOCC5)cc4)cc(Cl)c3O2)cn1 (stereo not drawn) [Compound 906, (E)-3-(6-Aminopyridin-3-yl)-N-((7-chloro-5-(4-(2-morpholinoacetyl)phenyl)-2,3-dihydrobenzofuran-2-yl)methyl)acrylamide]
IC50 [1]: 100 to 5000 nM | IC50 [2]: < 100 nM | IC50 [3]: < 100 nM

Nc1ccc(/C=C/C(=O)NCC2Cc3c(-c4cc(F)c(C(=O)N5CCOCC5)c(F)c4)ccc(Cl)c3O2)cn1 (stereo not drawn) [Compound 908, (E)-3-(6-Aminopyridin-3-yl)-N-((7-chloro-4-(3,5-difluoro-4-(morpholine-4-carbonyl)phenyl)-2,3-dihydrobenzofuran-2-yl)methyl)acrylamide]
IC50 [1]: 100 to 5000 nM | IC50 [2]: < 100 nM | IC50 [3]: < 100 nM

Nc1ccc(/C=C/C(=O)NCC2Cc3cc(-c4ccc(C(=O)C(=O)N5CCOCC5)cc4)cc(Cl)c3O2)cn1 (stereo not drawn) [Compound 909, (E)-3-(6-aminopyridin-3-yl)-N-((7-chloro-5-(4-(2-morpholino-2-oxoacetyl)phenyl)-2,3-dihydrobenzofuran-2-yl)methyl)acrylamide]
IC50 [1]: 100 to 5000 nM | IC50 [2]: < 100 nM | IC50 [3]: < 100 nM

Nc1ccc(/C=C/C(=O)NCC2Cc3c(-c4ccc(C(=O)N5CCOCC5)nc4)ccc(Cl)c3O2)cn1 (stereo not drawn) [Compound 910, (E)-3-(6-aminopyridin-3-yl)-N-((7-chloro-4-(6-(morpholine-4-carbonyl)pyridin-3-yl)-2,3-dihydrobenzofuran-2-yl)methyl)acrylamide]
IC50 [1]: 5000 to 30000 nM | IC50 [2]: 100 to 5000 nM | IC50 [3]: < 100 nM

Nc1ccc(/C=C/C(=O)NCC2Cc3c(-c4ccc(C(=O)N5CCOCC5)cc4F)ccc(Cl)c3O2)cn1 (stereo not drawn) [Compound 911, (E)-3-(6-aminopyridin-3-yl)-N-((7-chloro-4-(2-fluoro-4-(morpholine-4-carbonyl)phenyl)-2,3-dihydrobenzofuran-2-yl)methyl)acrylamide]
IC50 [1]: 100 to 5000 nM | IC50 [2]: < 100 nM | IC50 [3]: < 100 nM

Nc1ccc(/C=C/C(=O)NCC2Cc3c(-c4ccc(C(=O)N5CCOCC5)cn4)ccc(Cl)c3O2)cn1 (stereo not drawn) [Compound 912, (E)-3-(6-aminopyridin-3-yl)-N-((7-chloro-4-(5-(morpholine-4-carbonyl)pyridin-2-yl)-2,3-dihydrobenzofuran-2-yl)methyl)acrylamide]
IC50 [1]: 100 to 5000 nM | IC50 [2]: 100 to 5000 nM | IC50 [3]: < 100 nM

Nc1ccc(/C=C/C(=O)NCC2Cc3c(-c4cncc(C(=O)N5CCOCC5)c4)ccc(Cl)c3O2)cn1 (stereo not drawn) [Compound 913, (E)-3-(6-aminopyridin-3-yl)-N-((7-chloro-4-(5-(morpholine-4-carbonyl)pyridin-3-yl)-2,3-dihydrobenzofuran-2-yl)methyl)acrylamide]
IC50 [1]: 5000 to 30000 nM | IC50 [2]: 100 to 5000 nM | IC50 [3]: 100 to 5000 nM

Nc1ccc(/C=C/C(=O)NCC2Cc3cc(-c4ccc(S(=O)(=O)N5CCOCC5)cc4)cc(Cl)c3O2)cn1 (stereo not drawn) [Compound 914, (E)-3-(6-aminopyridin-3-yl)-N-((7-chloro-5-(4-(morpholinosulfonyl)phenyl)-2,3-dihydrobenzofuran-2-yl)methyl)acrylamide]
IC50 [1]: 100 to 5000 nM | IC50 [2]: < 100 nM | IC50 [3]: < 100 nM

Nc1ccc(/C=C/C(=O)NCC2Cc3c(-c4cccc(C(=O)N5CCOCC5)c4)ccc(Cl)c3O2)cn1 (stereo not drawn) [Compound 915, (E)-3-(6-aminopyridin-3-yl)-N-((7-chloro-4-(3-(morpholine-4-carbonyl)phenyl)-2,3-dihydrobenzofuran-2-yl)methyl)acrylamide]
IC50 [1]: 100 to 5000 nM | IC50 [2]: < 100 nM | IC50 [3]: < 100 nM

Nc1ccc(CCC(=O)NCC2Cc3cc(-c4ccc(C(=O)N5CCNCC5)cc4)cc(Cl)c3O2)cn1 (stereo not drawn) [Compound 920, 3-(6-aminopyridin-3-yl)-N-((7-chloro-5-(4-(piperazine-1-carbonyl)phenyl)-2,3-dihydrobenzofuran-2-yl)methyl)propanamide]
IC50 [1]: > 30000 nM | IC50 [2]: > 30000 nM | IC50 [3]: > 30000 nM
